18 compounds from the Deep4Chem optical property database can be followed below.

The series can be described thus: solvent given as SMILES.

`CC(C)[Si](C#Cc1c2cc3ccccc3cc2c(C#Cc2ccc(F)cc2)c2cc3ccccc3cc12)(C(C)C)C(C)C`: under “in ClCCl”, the absorption maximum is listed as 651 nm.
Consider `O=CC1=C(c2ccc(-c3cccs3)s2)CCC1`, for which the absorption maximum (in C1CCOC1) came out at 377 nm; the absorption maximum (in CC#N) is recorded as 374 nm; the absorption maximum (in CCCCCC) is listed as 366 nm; the absorption maximum (in CCO) amounted to 386 nm; the absorption maximum (in OCCOCCO) was found to be 377 nm; the absorption maximum (in c1ccncc1) turned out to be 385 nm.
The compound `COc1ccc(N2c3cc(OC)ccc3N=c3cc4c(cc32)=Nc2cc(C(C)(C)C)cc(C(C)(C)C)c2O4)cc1` showed an absorption maximum (in CC#N) of 539 nm, an absorption maximum (in CCCCCC) of 562 nm and an absorption maximum (in CO) of 558 nm.
Turning to `C(=C\c1nc2c(c(N3CCOCC3)n1)CCCC2)/c1ccccc1`, the absorption maximum (in ClCCl) is 284 nm.
Turning to `CCOC(=O)CCCCCn1c2ccc(C)cc2c(=O)c2cc3c(cc21)c(=O)c1cc(C)ccc1n3CCCCCC(=O)OCC`, the absorption maximum (in CO) is recorded as 540 nm.
In turn, `COc1ccccc1C1=[N+]2C(=C(c3ccccc3)c3c4ccccc4c(-c4ccccc4OC)n3[B-]2(F)F)c2ccccc21` yielded an absorption maximum (in ClCCl) of 617 nm.
In the case of `C=Cc1ccc(OC)c(OC)c1`, the absorption maximum (in C1CCCCC1) turned out to be 309 nm.
As to `CCCCCCCCCCCCSc1cc2c3c(ccc4c5c(SCCCCCCCCCCCC)cc6c7c(ccc(c1c34)c75)C(=O)N(C1CCCCC1)C6=O)C(=O)N(C1CCCCC1)C2=O`, the absorption maximum (in ClC(Cl)Cl) turned out to be 574 nm.
Under “in C1CCCCC1”, `CCCCc1cc2cccc[n+]2[b-]2c(-c3cccc4[b-]3[n+]3ccccc3cc4CCCC)cccc21` showed an absorption maximum of 446 nm.
For `FC(F)(F)C(F)(F)C(F)(F)C1=NC2=C(c3ccc4ccc5cccc6ccc3c4c56)C=C3c4cc(-c5ccc6ccc7cccc8ccc5c6c78)c5nc(C(F)(F)C(F)(F)C(F)(F)F)nc6c(-c7ccc8ccc9cccc%10ccc7c8c9%10)cc(c4c56)=C4C=C(c5ccc6ccc7cccc8ccc5c6c78)C(=N1)C2C34` (stereo not given), the absorption maximum reads like this: (in C1CCOC1) 524 nm; (in Cc1ccccc1) 560 nm.
The compound `COC(=O)/C=C/C=C/C1=[N+]2C(=C(c3c(C)cc(C)cc3C)c3ccc(/C=C/C=C/C(=O)OC)n3[B-]2(F)F)C=C1` gave an absorption maximum (in ClCCl) of 641 nm.
In the case of `C(/C=C/c1cc2c3c(c1)CCCN3CCC2)=C\c1ccncc1`, the absorption maximum was determined as 413 nm (in C1COCCO1), 413 nm (in CC#N), 403 nm (in CCCCCCC) and 419 nm (in CO).
For the setting “in CCO”, `CCOC(=O)c1cc(C(=O)OCC)c2cc(N)ccc2n1` returned an absorption maximum of 421 nm.
Consider `CCN(CC)c1ccc2cc3c([o+]c2c1)/C(=C/Nc1ccccc1)CCC3`, for which the absorption maximum reads like this: (in CCO) 605 nm; (in ClC(Cl)Cl) 616 nm; (in ClCCl) 615 nm.
Regarding `c1ccc2c(c1)[nH]c1c3[nH]c4ccccc4c3c3nsnc3c21`, the absorption maximum reads like this: (in CN(C)C=O) 410 nm; (in Cc1ccccc1) 410 nm; (in ClCCl) 410 nm.
Where the note is “in C1CCOC1”, `Cc1ccc(-c2cnc3nn4ccccc4c3n2)cc1` showed an absorption maximum of 400 nm.
`CCCCCCOc1ccc(C#Cc2ccc(C#CC#Cc3ccc(C#Cc4ccc(OCCCCCC)c(OCCCCCC)c4)c4nsnc34)c3nsnc23)cc1OCCCCCC`: the absorption maximum (in CN(C)C=O) came to 468 nm; the absorption maximum (in COc1ccccc1) is recorded as 472 nm; the absorption maximum (in Cc1ccccc1) stood at 470 nm; the absorption maximum (in ClC(Cl)Cl) is on record as 472 nm; the absorption maximum (in ClCCCl) turned out to be 471 nm; the absorption maximum (in ClCCl) was determined as 469 nm.
Take `CCN(CC)c1ccc(-c2nc3c(c4c2-c2ccc(C#N)cc2CC4)-c2ccc(C#N)cc2CC3)cc1`: the absorption maximum by setting is: (in C1CCOC1) 364 nm; (in CC#N) 360 nm; (in CCCCCC) 369 nm; (in CCOC(C)=O) 358 nm; (in CO) 360 nm; (in CS(C)=O) 375 nm. The absorption maximum by setting is: (in Cc1ccccc1) 368 nm; (in ClCCl) 363 nm.
